Measurements taken from patent US20170304228A1, “NEW INDICATION OF CINACALCET HCL PHARMACEUTICAL COMPOSITION FOR TREATING CANCER” (LAUNX BIOMEDICAL CO., LTD., priority 2014, published 2017).
Where “and” joins values, the source holds several entries; their conditions need not be identical. Equal values may be shown once. Where a name gives a salt, the structure may show the parent alone. Read-outs that look alike come from different tables or passages of the source.

Key:
786-O = assay: Cell viability analysis (WST-1), 786-O; type: cell-based; settings: Homo sapiens
Procedure: (§1) The cell numbers were counted and reseed as 2×10^6 in culture plate/flask. Then, the culture medium were added to a volume of 10 ml, and the cells were cultured for 2-3 days. Then, the cells were suspended for loading into 96-well plates. The number of cells was 3000 and the volume of the culture medium was 100 μl each well.
(§2) Removing the original culture medium from 96-well plate. Then add 100 μl of commercially drug at a concentration of 10 μM per well. After 72 hours, add the diluted WST-1 reagent to the well with 100 μl/well, and the diluted WST-1 reagent was acquired from the dilution of 9:1 medium and WST-1 stock reagent. Finally, the total volume of each well was 200 μl/well. Culture the 96-well plate at 37° C. for 30 to 90 minutes. Detecting and calculate the survival rate of each cancer cells with an ELISA reader at OD450 nm. The lower viability of cancer cells represents better inhibition effect via the Cinacalcet HCl drug. Otherwise, the higher viability of cancer cells represents worse inhibition effect via the Cinacalcet HCl drug.
This inhibition test of Cinacalcet HCl on abdominal-related cancer cells were using bladder cancer cell line TSGH and T24 (Table 3), cervical cancer cell lines HeLa and C-33A (Table 4), renal cancer cell line 786-O (Table 5). The inhibitory tests of Cinacalcet HCl were performed 4 times for each cell lines and then the average value of the inhibitory tests was calculated.

LNCap = assay: Cell viability analysis (WST-1), LNCap; type: cell-based; settings: Homo sapiens, 72 hours, Average of tests, read-out: survival rate (viability) of cells
Procedure: as §1
as §2, with “Otherwise, the higher viability of cancer cells represents worse inhibition effect via the Cinacalcet HCl drug.” left out
(§3) This inhibition test of Cinacalcet HCl on endocrine-related cancer cells were using prostate cancer cell lines PC-3 and LNCap (Table 6), breast cancer cell lines MCF7 and MDA-MB-231 (Table 7), and ovarian cancer cell lines NIH-OVCAR-3 and TOV-21G (Table 8). The inhibitory tests of Cinacalcet HCl were performed 4 times for each cell lines and then the average value of the inhibitory tests was calculated.

TOV-21G = assay: Cell viability analysis (WST-1), TOV-21G; type: cell-based; settings: Homo sapiens, TOV21G, read-out: survival rate (viability) of cells
Procedure: as §1, §2, §3

MKN-45 = assay: Cell viability analysis (WST-1), MKN-45; type: cell-based; settings: Homo sapiens, read-out: survival rate (viability) of cells
Procedure: as §1, §2
This inhibition test of Cinacalcet HCl on gastrointestinal tract-related cancer cells were using gastric cancer cell lines AGS and MKN-45 (Table 9), hepatic cancer cell lines HepG2 and Hep3B (Table 10), colorectal cancer cell lines HCT116-wt and LoVo (Table 11), pancreatic cancer cell line AsPC-1 and BxPC-3(Table 12), tongue cancer cell line SAS (Table 13). The inhibitory tests of Cinacalcet HCl were performed 4 times for each cell lines and then the average value of the inhibitory tests was calculated.

[1] = Cell viability analysis (WST-1), normal pulmonary epithelial cell line BEAS-2B; type: cell-based; settings: human, BEAS-2B cells (normal pulmonary epithelial cell line)
Text: Subculture the different types of cancer cells. The cancer cells includes lung cancer, gastric cancer, hepatic cancer, colon cancer, skin cancer, cervical cancer, prostate cancer, bladder cancer, breast cancer, leukemia, pancreatic cancer, ovarian cancer, tongue cancer, osteosarcoma, and renal cancer. The normal cells used in the control group included kidney cell (HEK293) and human bronchial epithelial cell line BEAS-2B (as shown in Table 1).
as §1, §2
This inhibition test of Cinacalcet HCl on normal cells were using normal kidney cell line HEK293 (Table 16), normal pulmonary epithelial cell lines […] BEAS-2B (Table 17). The inhibitory tests of Cinacalcet HCl were performed 4 times for each cell lines and then the average value of the inhibitory tests was calculated The results were shown in Tables 16 and Tables 17.

[2] = system: gastric cancer cells (AGS); assay: Animal model test of gastric cancer, tumor size; type: in vivo, mice
Procedure: In this invention, the female mice were(BALB/cAnN.Cg-Foxnl™/CrlNarl) and purchased from National Laboratory Animal Center (Taiwan). The weight of the mice were 21±1 g. These mice were subcutaneously injected with gastric cancer cells (AGS) and then put these mice into different cages at random. The drug test experiment was divided into three groups, include “control group”, “low dose group (100 mg/kg/day)”, “high dose group (200 mg/kg/day)”. These mice were then injected test drug intraperitoneally once daily […]. The tumor sizes and body weight were measured twice a week. The tumor sizes were measured and calculated by formula: (L×W^2)/2. L represents the tumor longest length. W represents the tumor shortest diameter.

[3] = Low dose (100 mg/kg/day) intraperitoneally, First measurement, average
[4] = Low dose (100 mg/kg/day) intraperitoneally, First measurement, single mice A, B, C, hydrochloride, 100 mg/kg/day
[5] = Low dose (100 mg/kg/day) intraperitoneally, Fourth measurement, average
[6] = Low dose (100 mg/kg/day) intraperitoneally, Fourth measurement, single mice A, B, C, hydrochloride, 100 mg/kg/day
[7] = Low dose (100 mg/kg/day) intraperitoneally, Second measurement, average
[8] = Low dose (100 mg/kg/day) intraperitoneally, Second measurement, single mice A, B, C, hydrochloride, 100 mg/kg/day
[9] = Low dose (100 mg/kg/day) intraperitoneally, Third measurement, average
[10] = both low dose and high dose, FIG. 3
[11] = high dose (200 mg/kg/day) intraperitoneally, First measurement, average
[12] = high dose (200 mg/kg/day) intraperitoneally, First measurement, single mice A, B, C, hydrochloride, 200 mg/kg/day
[13] = high dose (200 mg/kg/day) intraperitoneally, Fourth measurement, average
[14] = high dose (200 mg/kg/day) intraperitoneally, Second measurement, average
[15] = high dose (200 mg/kg/day) intraperitoneally, Second measurement, single mice A, B, C, hydrochloride, 200 mg/kg/day
[16] = high dose (200 mg/kg/day) intraperitoneally, Third measurement, average
[17] = high dose (200 mg/kg/day) intraperitoneally, Third measurement, single mice A, B, C, hydrochloride, 200 mg/kg/day

With `C[C@@H](NCCCc1cccc(C(F)(F)F)c1)c1cccc2ccccc12` [Cinacalcet HCl, Cinacalcet hydrochloride] the viability at 10 µM (786-O; 786-0, 10 μM, 72 hours, test 0524-10 min, read-out: survival rate (viability) of cells) was 81.3%, the viability at 10 µM (786-O; 786-0, 10 μM, 72 hours, test 0526-10 min, read-out: survival rate (viability) of cells) was 71.6% and the viability at 10 µM (786-O; 786-0, 10 μM, 72 hours, test 0529-10 min, read-out: survival rate (viability) of cells) was 80.2%. The viability at 10 µM (786-O; 786-0, 10 μM, 72 hours, test 0531-10 min, read-out: survival rate (viability) of cells) was 87.1%, the viability at 10 µM (786-O; 786-0, 72 h, 10 μM, average of tests, read-out: survival rate (viability) of cells) was 80% and the viability at 10 µM (786-O; 786-0, 72 h, summary, Kidney cancer, 10 μM, read-out: Inhibitory effect) was 87.5%. It also gave a viability at 10 µM (LNCap) of 52.6%, a viability at 10 µM (TOV-21G; 72 h, average of tests) of 113% and a viability at 10 µM (TOV-21G; 72 hours, test 7-3-30 min) of 129%. The viability at 10 µM (TOV-21G; 72 hours, test 7-4-30 min) was 109%, the viability at 10 µM (TOV-21G; 72 hours, test 7-7-30 min) was 104% and the viability at 10 µM (TOV-21G; 72 hours, test -4-30 min) was 108%. The viability at 10 µM (MKN-45; MKN-45, 10 μM, 72 hours, test 0510-10 min) was 82.1%, the viability at 10 µM (MKN-45; MKN-45, 10 μM, 72 hours, test 0512-10 min) was 102% and the viability at 10 µM (MKN-45; MKN-45, 10 μM, 72 hours, test 0515-10 min) was 104%. The viability at 10 µM (MKN-45; MKN-45, 10 μM, 72 hours, test 0517-10 min) was 69.1%, the viability at 10 µM (MKN-45; MKN-45, 72 h, 10 μM, average of tests) was 89.1% and the viability at 72 h, 10 µM ([1]; average of tests, read-out: survival rate (viability) of cells) was 76.1%. For the same molecule, the viability at 72 h, 10 µM ([1]; summary, normal pulmonary epithelial cell line, read-out: Inhibitory effect) was 76.1%, the viability at 72 h, 10 µM ([1]; test 0510-10 min, read-out: survival rate (viability) of cells) was 70.5% and the viability at 72 h, 10 µM ([1]; test 0512-10 min, read-out: survival rate (viability) of cells) was 72.9%. The viability at 72 h, 10 µM ([1]; test 0515-10 min, read-out: survival rate (viability) of cells) was 72.2%, the viability at 72 h, 10 µM ([1]; test 0517-10 min, read-out: survival rate (viability) of cells) was 89% and the tumor volume [2, 3] was 592 mm3. For the same molecule, the tumor volume growth [2, 3] was 592 mm3, the tumor longest length [2, 4] was 11 mm and 13 mm and 14 mm and the tumor width [2, 4] was 8 mm and 12 mm. For the same molecule, the tumor volume [2, 5] was 562.1667 mm3, the tumor volume growth [2, 5] was −240.3333 mm3 and the tumor longest length [2, 6] was 10 mm and 14 mm and 13 mm. The tumor width [2, 6] was 7 mm and 13 mm, the tumor volume [2, 7] was 277.5 mm3 and the tumor volume growth [2, 7] was −314.5 mm3. The tumor longest length [2, 8] was 8 mm and 16 mm and 9 mm, the tumor width [2, 8] was 5 mm and 8 mm and 7 mm and the tumor volume [2, 9] was 802.5 mm3. For the same molecule, the tumor volume growth [2, 9] was 525 mm3, the “inhibition effect on tumor cells” value ([2]; both low dose and high dose, FIG. 2) was “significant inhibition effect” and the tumor volume [2, 10] was “can also reduce the tumor volume”. The tumor volume growth [2, 10] was “effectively slow down the tumor volume growth”, the tumor volume [2, 11] was 81.17 mm3 and the tumor volume growth [2, 11] was 81.17 mm3. The tumor longest length [2, 12] was 7 mm and 6 mm, the tumor width [2, 12] was 5 mm and 6 mm and 4 mm and the tumor volume [2, 13] was 22.33 mm3. It also gave a tumor volume growth [2, 13] of −56.8333 mm3, a tumor volume [2, 14] of 131.1667 mm3 and a tumor volume growth [2, 14] of 50 mm3. For the same molecule, the tumor longest length [2, 15] was 7 mm and 6 mm, the tumor width [2, 15] was 7 mm and 5 mm and the tumor volume [2, 16] was 79.17 mm3. The tumor volume growth [2, 16] was −52 mm3, the tumor width ([2]; high dose (200 mg/kg/day) intraperitoneally, Third measurement, single mice A, B, C) was 5 mm and the tumor longest length [2, 17] was 7 mm and 6 mm. The tumor volume [2, 17] was 87.5 mm3 and 75 mm3 and the “inhibition of tumor growth, high doses compared with low dose” value ([2]; high doses, FIG. 3) was “better effect to inhibit tumor growth”.
